In one experiment the target is T1, AtPEPR2 (Arabidopsis thaliana, UniProt Q9FZ59).
T1 construct: the AtPEPR2 coding region was fused to the CaMV 35S promoter and introduced into tobacco suspension-cultured cells; expressed in transfected cells; host or cells: tobacco suspension-cultured cells, transformed by Agrobacterium, kanamycin-selected
T1 sequence (Q9FZ59 27-1088): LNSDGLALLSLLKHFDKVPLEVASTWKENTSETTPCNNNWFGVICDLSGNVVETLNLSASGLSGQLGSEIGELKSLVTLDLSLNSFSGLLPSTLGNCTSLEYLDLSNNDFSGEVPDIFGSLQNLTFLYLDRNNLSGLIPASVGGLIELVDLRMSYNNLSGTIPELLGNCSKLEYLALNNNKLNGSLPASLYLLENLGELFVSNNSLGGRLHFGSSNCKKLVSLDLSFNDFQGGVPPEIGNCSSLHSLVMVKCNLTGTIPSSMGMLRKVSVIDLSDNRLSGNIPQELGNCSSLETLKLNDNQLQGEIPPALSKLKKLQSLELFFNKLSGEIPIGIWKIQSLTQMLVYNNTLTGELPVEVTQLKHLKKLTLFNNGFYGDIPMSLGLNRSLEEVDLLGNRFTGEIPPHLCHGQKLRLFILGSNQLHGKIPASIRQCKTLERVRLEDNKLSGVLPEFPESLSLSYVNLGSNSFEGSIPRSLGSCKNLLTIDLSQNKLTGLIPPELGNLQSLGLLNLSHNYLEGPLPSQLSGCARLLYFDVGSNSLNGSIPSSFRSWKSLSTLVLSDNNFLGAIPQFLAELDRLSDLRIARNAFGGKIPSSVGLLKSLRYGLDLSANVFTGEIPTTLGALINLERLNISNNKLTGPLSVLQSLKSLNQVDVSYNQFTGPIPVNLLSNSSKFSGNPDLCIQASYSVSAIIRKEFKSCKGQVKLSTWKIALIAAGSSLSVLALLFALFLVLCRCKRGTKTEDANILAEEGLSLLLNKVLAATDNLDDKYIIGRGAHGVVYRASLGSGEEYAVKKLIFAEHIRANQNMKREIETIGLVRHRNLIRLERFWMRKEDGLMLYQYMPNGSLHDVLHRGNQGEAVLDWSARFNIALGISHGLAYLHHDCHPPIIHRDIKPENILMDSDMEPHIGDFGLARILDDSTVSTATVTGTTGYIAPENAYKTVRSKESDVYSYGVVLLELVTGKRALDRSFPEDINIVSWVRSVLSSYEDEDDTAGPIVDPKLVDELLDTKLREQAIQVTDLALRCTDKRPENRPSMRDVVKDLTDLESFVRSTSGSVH
Description: Medium alkalinization of transgenic tobacco cells expressing AtPEPR2. In kind it is cell-based. As for the experimental part: (§1) To clarify whether AtPEPR2 binds to AtPep1, the AtPEPR2 coding region was fused to the CaMV 35S promoter and introduced into tobacco suspension-cultured cells by Agrobacterium. Tobacco cells expressing AtPEPR1 and GUS genes were also created as positive and negative controls, respectively. […] These transgenic lines were analyzed for alkalinizing activity as previously described (Pearce et al., Proc. Natl. Acad. Sci. USA 98, 12843-12847, 2001).
(§2) The response to all AtPep peptides in transgenic tobacco cells expressing either AtPEPR1 or AtPEPR2 was analyzed by the medium alkalinization assay.

A further experiment deals with T2, AtPEPR1 (Arabidopsis thaliana, UniProt Q9SSL9).
T2 construct: Tobacco cells were transformed with a CaMV-35S-AtPEPR1 gene; expressed in transfected cells; host or cells: tobacco suspension-cultured cells (Agrobacterium-mediated, CaMV 35S promoter)
T2 sequence (Q9SSL9 29-1123): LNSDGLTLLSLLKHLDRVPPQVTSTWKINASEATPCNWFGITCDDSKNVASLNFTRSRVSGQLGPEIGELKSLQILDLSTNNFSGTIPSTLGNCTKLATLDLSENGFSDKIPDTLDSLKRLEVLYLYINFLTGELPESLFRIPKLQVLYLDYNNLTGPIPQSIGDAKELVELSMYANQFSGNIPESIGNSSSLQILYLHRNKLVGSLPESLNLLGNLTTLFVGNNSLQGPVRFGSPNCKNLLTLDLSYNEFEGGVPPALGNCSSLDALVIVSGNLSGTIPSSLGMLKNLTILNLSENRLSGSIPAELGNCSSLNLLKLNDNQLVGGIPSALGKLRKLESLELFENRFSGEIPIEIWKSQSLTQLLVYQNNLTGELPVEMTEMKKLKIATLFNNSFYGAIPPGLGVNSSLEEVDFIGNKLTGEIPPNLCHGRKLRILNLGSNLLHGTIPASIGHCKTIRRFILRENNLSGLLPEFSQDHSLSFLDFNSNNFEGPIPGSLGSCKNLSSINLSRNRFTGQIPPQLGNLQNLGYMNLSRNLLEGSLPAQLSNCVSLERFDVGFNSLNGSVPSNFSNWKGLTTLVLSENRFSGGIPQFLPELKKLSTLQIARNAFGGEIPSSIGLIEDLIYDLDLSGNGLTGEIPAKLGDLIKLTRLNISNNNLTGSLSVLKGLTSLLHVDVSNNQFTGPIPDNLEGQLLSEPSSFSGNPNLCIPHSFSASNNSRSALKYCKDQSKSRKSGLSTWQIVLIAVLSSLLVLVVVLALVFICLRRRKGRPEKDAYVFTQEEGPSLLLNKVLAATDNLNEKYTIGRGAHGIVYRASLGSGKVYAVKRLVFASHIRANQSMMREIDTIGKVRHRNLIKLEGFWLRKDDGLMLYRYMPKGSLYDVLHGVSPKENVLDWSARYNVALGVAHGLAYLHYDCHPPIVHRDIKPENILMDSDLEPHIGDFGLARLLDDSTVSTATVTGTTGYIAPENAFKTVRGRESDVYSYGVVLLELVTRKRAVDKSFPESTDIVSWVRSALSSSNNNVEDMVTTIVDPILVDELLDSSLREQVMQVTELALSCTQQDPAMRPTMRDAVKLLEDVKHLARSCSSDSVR
As to the kind of experiment: Medium alkalinization of transgenic tobacco cells expressing AtPEPR1. In kind it is cell-based.
Excerpt: Tobacco cells were transformed with a CaMV-35S-AtPEPR1 gene to determine whether the foreign receptor protein was targeted to the cell surface, where, in response to AtPep1, it would activate intracellular signaling to effect the alkalinization of the medium of the transgenic tobacco cells. Expression of the AtPEPR1 gene was confirmed by RT-PCR analysis of RNA from three independently transformed tobacco cell lines. […] AtPep2-7 was also supplied to the transgenic tobacco cells expressing AtPEPR1.
as §1, §2

Setting [1] is: AtPEPR2 expressing tobacco cells.
Where [2] appears, read: AtPEPR1 expressing tobacco cells.

Where “and” joins values, the source holds several entries; their conditions need not be identical. Equal entries are not always repeated. Entries after “also recorded” stand apart in the source; their conditions may differ.

By EC50 is commonly meant the concentration at which the effect is half-maximal.

Consider H-ATKVKAKQRGKEKVSSGRPGQHN-OH [AtPep1], for which the EC50 on AtPEPR2 and on AtPEPR1 was roughly 250 pM throughout. In addition, the “alkalinization of the medium” value on AtPEPR2 (setting [1]) is “caused alkalinization of the media”; at AtPEPR1 (setting [2]), “strong, reproducible alkalinization; also recorded: caused alkalinization of the media”. Also, the maximal change is 1-1.2 pH units and 1.2 pH units at AtPEPR2 (setting [1]); 1.2 pH units on AtPEPR1 (setting [2]).

Source of the values: patent US8686224B2, “Plant defense signal peptides” (priority 2005, dated 2014).
